Data as given in US6555091B1, “Polypeptide capable of reacting with antibodies of patients suffering from multiple sclerosis and uses” (Bio Merieux, priority 1997, dated 2003).

Tests used:
[1] = test system: IgG of CSF from patients suffering from MS; assay: ELISA of polypeptides, IgG response of CSFs diluted 1/10 (Table 5, FIGS. 7A and 7B); format: binding, human; conditions: total line, 15 MS patients, CSF 1/10
Text: FIGS. 7A and 7B represents the IgG response of the polypeptides whose peptide sequence consists of, respectively, SEQ ID NO: 13, SEQ ID NO: 12, SEQ ID NO: 14, SEQ ID NO: 16, SEQ ID NO: 19 and SEQ ID NO: 15, with respect to CSFs diluted 1/10; the results assembled in the appended Table 5 are expressed by the difference in the optical density values obtained for the polypeptide tested and the values obtained for the HIV polypeptide used as control; ND corresponds to patients suffering from a neurological disease other than MS, and MS* corresponds to patients suffering from MS.
Table 5, illustrated in FIGS. 7A and 7B, collates the results on the specific recognition of CSF from patients suffering from MS for 6 polypeptides of the invention, SEQ ID NO: 13, SEQ ID NO: 12, SEQ ID NO: 14, SEQ ID NO: 16, SEQ ID NO: 19 and SEQ ID NO: 15.
For each polypeptide tested, identified in Table 5 by its peptide sequence, the CSFs from patients 1-22 suffering from Ms are determined as positive (+) if the OD value at 492 nm for a 1/10 dilution of the CSF is greater than the mean values obtained for the CSFs from the ND patients+3 times the standard deviation.

[2] = test system: IgM of sera from MS patients and healthy individuals; assay: ELISA of biotinylated synthetic peptide, IgM response of individual human sera; format: binding; set-up: key to LINE (mark: serum recognizes the peptide): X: 7 sera out of 11 recognize this peptide; conditions: 1/100; for LINE (mark: serum recognizes the peptide) / OD 1 / OD 2 / OD 3 / MEAN: IgM
Method: Depending on the information obtained from the preceding examples, the hexapeptides SEQ ID NO: 3 and SEQ ID NO: 4 were synthesized and biotinylated according to the method described in Patent Application No. EP 93420183 with the following modifications: the peptide still bound to the resin is selectively deprotected at the N-terminal position. After overnight incubation with the biotin-NHS at 50% in DMF, the peptide is then cleaved from the resin and treated as described in the patent cited above.
The wells of a Maxisorb (trade name, Nunc) microtiter plate are saturated with 100 μl of a 50 mM NaHCO3 solution, pH 9.6, containing 10 μg/ml of streptavidin for 2 hours at 37° C. The plate is washed with TBS/0.05% Tween 20 buffer. The wells are then saturated with 250 μl of wash buffer supplemented with 10% goat serum for 1 hour at 37° C. and then washed as described above.
The IgM response is determined by addition of a 1/4000 solution of mouse monoclonal antibody anti-alkaline phosphatase-labeled human M immunoglobulin conjugate (bioMérieux Ac 5A10D5). After incubation at 37° C. for one hour the plate is again washed and the p-nitrophenyl phosphate substrate at 1 mg/ml in an […] of diethanolamine, pH 9.8, containing 1 mM MgCl2, is added. The reaction is stopped after 30 minutes by the addition of 50 μl of 3N sodium hydroxide solution. The optical density is read at 405 nm.
This unit was therefore also synthesized and biotinylated.

With DTPYPWGWLLDEGYD (MSRV) [SEQ ID NO: 15] the “number of positive (+) CSFs” value [1] was 0+.
With LAVRHD [SEQ ID NO: 8] the “LINE (mark: serum recognizes the peptide)” value (shortened to “LINE”) ([2]; serum 33/6 (MS+, remission)) was “X”, the “OD 1” value ([2]; serum 33/6 (MS+, remission)) was 516 optical density (×1000) and the “OD 2” value ([2]; serum 33/6 (MS+, remission)) was 529 optical density (×1000). For the same substance, the “OD 3” value ([2]; serum 33/6 (MS+, remission)) was 481 optical density (×1000), the MEAN ([2]; serum 33/6 (MS+, remission), (mean less Control 1, 173)) was 336 optical density (×1000) and the MEAN ([2]; serum 33/6 (MS+, remission), MEAN) was 509 optical density (×1000). The “LINE” value ([2]; serum 33/8 (MS+, remission)) was “X”, the “OD 1” value ([2]; serum 33/8 (MS+, remission)) was 609 optical density (×1000) and the “OD 2” value ([2]; serum 33/8 (MS+, remission)) was 512 optical density (×1000). The “OD 3” value ([2]; serum 33/8 (MS+, remission)) was 568 optical density (×1000), the MEAN ([2]; serum 33/8 (MS+, remission), (mean less Control 1, 173)) was 390 optical density (×1000) and the MEAN ([2]; serum 33/8 (MS+, remission), MEAN) was 563 optical density (×1000). The “LINE” value ([2]; serum 33/18 (MS+, remission)) was “X”, the “OD 1” value ([2]; serum 33/18 (MS+, remission)) was 277 optical density (×1000) and the “OD 2” value ([2]; serum 33/18 (MS+, remission)) was 262 optical density (×1000). The “OD 3” value ([2]; serum 33/18 (MS+, remission)) was 255 optical density (×1000), the MEAN ([2]; serum 33/18 (MS+, remission), (mean less Control 1, 173)) was 92 optical density (×1000) and the MEAN ([2]; serum 33/18 (MS+, remission), MEAN) was 265 optical density (×1000). For the same substance, the “OD 1” value ([2]; serum No. 12 (MS−, healthy)) was 222 optical density (×1000), the “OD 2” value ([2]; serum No. 12 (MS−, healthy)) was 175 optical density (×1000) and the “OD 3” value ([2]; serum No. 12 (MS−, healthy)) was 163 optical density (×1000). The MEAN ([2]; serum No. 12 (MS−, healthy), (mean less Control 1, 173)) was 14 optical density (×1000), the MEAN ([2]; serum No. 12 (MS−, healthy), MEAN) was 187 optical density (×1000) and the “OD 1” value ([2]; serum No. 13 (MS−, healthy)) was 145 optical density (×1000). The “OD 2” value ([2]; serum No. 13 (MS−, healthy)) was 154 optical density (×1000), the “OD 3” value ([2]; serum No. 13 (MS−, healthy)) was 196 optical density (×1000) and the MEAN ([2]; serum No. 13 (MS−, healthy), (mean less Control 1, 173)) was −6 optical density (×1000). The MEAN ([2]; serum No. 13 (MS−, healthy), MEAN) was 165 optical density (×1000), the “OD 1” value ([2]; serum No. 14 (MS−, healthy)) was 320 optical density (×1000) and the “OD 2” value ([2]; serum No. 14 (MS−, healthy)) was 165 optical density (×1000). For the same substance, the “OD 3” value ([2]; serum No. 14 (MS−, healthy)) was 143 optical density (×1000), the MEAN ([2]; serum No. 14 (MS−, healthy), (mean less Control 1, 173)) was 36 optical density (×1000) and the MEAN ([2]; serum No. 14 (MS−, healthy), MEAN) was 209 optical density (×1000). For the same substance, the “OD 1” value ([2]; serum No. 15 (MS−, healthy)) was 254 optical density (×1000), the “OD 2” value ([2]; serum No. 15 (MS−, healthy)) was 205 optical density (×1000) and the “OD 3” value ([2]; serum No. 15 (MS−, healthy)) was 173 optical density (×1000). For the same substance, the MEAN ([2]; serum No. 15 (MS−, healthy), (mean less Control 1, 173)) was 38 optical density (×1000), the MEAN ([2]; serum No. 15 (MS−, healthy), MEAN) was 211 optical density (×1000) and the “LINE” value ([2]; serum QS 2 (MS+, remission)) was “X”. The “OD 1” value ([2]; serum QS 2 (MS+, remission)) was 281 optical density (×1000), the “OD 2” value ([2]; serum QS 2 (MS+, remission)) was 280 optical density (×1000) and the “OD 3” value ([2]; serum QS 2 (MS+, remission)) was 231 optical density (×1000). For the same substance, the MEAN ([2]; serum QS 2 (MS+, remission), (mean less Control 1, 173)) was 91 optical density (×1000), the MEAN ([2]; serum QS 2 (MS+, remission), MEAN) was 264 optical density (×1000) and the “OD 1” value ([2]; serum QS 3 (MS+, remission)) was 191 optical density (×1000). For the same substance, the “OD 2” value ([2]; serum QS 3 (MS+, remission)) was 169 optical density (×1000), the “OD 3” value ([2]; serum QS 3 (MS+, remission)) was 164 optical density (×1000) and the MEAN ([2]; serum QS 3 (MS+, remission), (mean less Control 1, 173)) was 2 optical density (×1000). The MEAN ([2]; serum QS 3 (MS+, remission), MEAN) was 175 optical density (×1000), the “LINE” value ([2]; serum QS 4 (MS+, remission)) was “X” and the “OD 1” value ([2]; serum QS 4 (MS+, remission)) was 374 optical density (×1000). The “OD 2” value ([2]; serum QS 4 (MS+, remission)) was 361 optical density (×1000), the “OD 3” value ([2]; serum QS 4 (MS+, remission)) was 346 optical density (×1000) and the MEAN ([2]; serum QS 4 (MS+, remission), (mean less Control 1, 173)) was 187 optical density (×1000). The MEAN ([2]; serum QS 4 (MS+, remission), MEAN) was 360 optical density (×1000), the “OD 1” value ([2]; serum QS 6 (MS+, remission)) was 156 optical density (×1000) and the “OD 2” value ([2]; serum QS 6 (MS+, remission)) was 147 optical density (×1000). For the same substance, the “OD 3” value ([2]; serum QS 6 (MS+, remission)) was 151 optical density (×1000), the MEAN ([2]; serum QS 6 (MS+, remission), (mean less Control 1, 173)) was −22 optical density (×1000) and the MEAN ([2]; serum QS 6 (MS+, remission), MEAN) was 151 optical density (×1000). For the same substance, the “LINE” value ([2]; serum QS 7 (MS+, remission)) was “X”, the “OD 1” value ([2]; serum QS 7 (MS+, remission)) was 311 optical density (×1000) and the “OD 2” value ([2]; serum QS 7 (MS+, remission)) was 290 optical density (×1000). For the same substance, the “OD 3” value ([2]; serum QS 7 (MS+, remission)) was 164 optical density (×1000), the MEAN ([2]; serum QS 7 (MS+, remission), (mean less Control 1, 173)) was 82 optical density (×1000) and the MEAN ([2]; serum QS 7 (MS+, remission), MEAN) was 265 optical density (×1000). For the same substance, the “LINE” value ([2]; serum QS 8 (MS+, remission)) was “X”, the “OD 1” value ([2]; serum QS 8 (MS+, remission)) was 305 optical density (×1000) and the “OD 2” value ([2]; serum QS 8 (MS+, remission)) was 221 optical density (×1000). For the same substance, the “OD 3” value ([2]; serum QS 8 (MS+, remission)) was 265 optical density (×1000), the MEAN ([2]; serum QS 8 (MS+, remission), (mean less Control 1, 173)) was 91 optical density (×1000) and the MEAN ([2]; serum QS 8 (MS+, remission), MEAN) was 264 optical density (×1000). The “OD 1” value ([2]; serum QS 11 (MS+, remission)) was 164 optical density (×1000), the “OD 2” value ([2]; serum QS 11 (MS+, remission)) was 160 optical density (×1000) and the “OD 3” value ([2]; serum QS 11 (MS+, remission)) was 139 optical density (×1000). For the same substance, the MEAN ([2]; serum QS 11 (MS+, remission), (mean less Control 1, 173)) was −19 optical density (×1000), the MEAN ([2]; serum QS 11 (MS+, remission), MEAN) was 154 optical density (×1000) and the “OD 1” value ([2]; serum QS 12 (MS+, remission)) was 123 optical density (×1000). The “OD 2” value ([2]; serum QS 12 (MS+, remission)) was 57 optical density (×1000), the “OD 3” value ([2]; serum QS 12 (MS+, remission)) was 148 optical density (×1000) and the MEAN ([2]; serum QS 12 (MS+, remission), (mean less Control 1, 173)) was −64 optical density (×1000). The MEAN ([2]; serum QS 12 (MS+, remission), MEAN) was 109 optical density (×1000) and the “MS sera recognizing the peptide, IgM response” value ([2]; same panel of 11 MS remission sera) was 7 sera out of 11.
